“And” between values parts separate entries of the source, which are not always exact repeats. Equal values may be shown once. “Also recorded” adds a separate entry of the source. Read-outs that look alike come from different tables or passages of the source.
Assays:
[1] = test system: human cytomegalovirus (HCMV) strain AD-169; assay: Antiviral effect of different exposure times, HCMV strain AD-169 (plaque reduction); format: cell-based
HCMV, strain AD-169 = assay: Virucidal test versus HCMV, strain AD-169; format: cell-based, human cytomegalovirus; settings: in words
[2] = test system: HCMV, strain C8805-37 (DHPG-resistant); assay: microbe, parasite or virus in culture; format: cell-based, human cytomegalovirus; settings: for inhibition at 0.01 µg/mL / inhibition at 0.032 µg/mL / inhibition at 0.1 µg/mL / inhibition at 0.32 µg/mL / inhibition at 1 µg/mL / inhibition at 3.2 µg/mL: Human betaherpesvirus 5, MRC5, read-out: Percent Inhibition Compared to Controls; for inhibition at 10 µg/mL: Human betaherpesvirus 5, MRC5, 96 h, read-out: Percent Inhibition Compared to Controls
[3] = test system: human cytomegalovirus (HCMV), strain AD-169; assay: Antiviral test (plaque reduction) versus HCMV, strain AD-169, in MRC-5 cells; format: cell-based; settings: for Activity in initial screening against HCMV in vitro: in words; for Number of Plaques: average of two wells; for inhibition at 0.0032 µg/mL: Human betaherpesvirus 5, AD169, MRC5, 0.0032 μg/ml; for inhibition at 0.01 µg/mL: Human betaherpesvirus 5, AD169, MRC5, 0.01 μg/ml; for inhibition at 0.032 µg/mL: Human betaherpesvirus 5, AD169, MRC5, 0.032 μg/ml; for inhibition at 0.1 µg/mL: Human betaherpesvirus 5, AD169, MRC5, 0.1 μg/ml; for inhibition at 0.32 µg/mL: Human betaherpesvirus 5, AD169, MRC5, 0.32 μg/ml; for inhibition at 1 µg/mL: Human betaherpesvirus 5, AD169, MRC5, 1.0 μg/ml; for inhibition at 10 µg/mL: Human betaherpesvirus 5, AD169, MRC5, 10 μg/ml
[4] = test system: murine cytomegalovirus, strain Smith MSGV; assay: Antiviral test (plaque reduction) versus murine cytomegalovirus, strain Smith MSGV, in 3T3 cells; format: cell-based; settings: Example 8
3T3 cells = settings: mouse
[5] = 10 μg/ml, Example 2, ethanol stock (protohypericin in DMSO), cells exposed 6 or more days
[6] = statement in words on the plaque reduction results
[7] = Example 3, cells exposed 4 days
[8] = Table 9 summary, two values = two experiments
[9] = Table 10 summary, DHPG resistant HCMV test
[10] = 0.0032 μg/ml, Example 1, DMSO stock
[11] = 0.1 μg/ml, Example 1, DMSO stock
[12] = 0.32 μg/ml, Example 1, DMSO stock
[13] = 1.0 μg/ml, Example 1, DMSO stock
[14] = 3.2 μg/ml, Example 1, DMSO stock
[15] = 10 μg/ml, Example 1, DMSO stock
[16] = Example 2, read-out: Percent Inhibition of Plaque Numbers (Compared to Virus Controls)
[17] = Example 1, DMSO stock, read-out: % Inhibition
[18] = Human betaherpesvirus 5, AD169, MRC5, 3.2 μg/ml, Example 1, DMSO stock, read-out: % Inhibition
[19] = 0.32 μg/ml (second line so printed, r16, below 0.1)
[20] = Human betaherpesvirus 5, AD169, MRC5, read-out: % Reduction

SMILES: Cc1cc(O)c2c(c1)C(C1c3cc(C)cc(O)c3C(=O)c3c(O)cc(O)cc31)c1cc(O)cc(O)c1C2=O (stereo not drawn) [Emodin Bianthrone (mixed), emodin bianthrone]
- Plaque reduction ([1]; 4 hour exposure to the cells): ~60%
- Exposure time at which complete inhibition of plaques is seen ([1]; concentration chosen to cause 100% plaque reduction on full exposure): 6 h
- Antiviral effect ([1]; only 2 hours of exposure): no effect
- Virucidal activity against HCMV (HCMV, strain AD-169): negligible virucidal activity
- Activity against DHPG resistant HCMV strain [2]: retain essentially the same activity
- Percent Inhibition of Plaque Numbers (Compared to Virus Controls) ([3]; 0.01 μg/ml, Example 2): 0%
- Percent Inhibition of Plaque Numbers (Compared to Virus Controls) ([3]; 0.032 μg/ml, Example 2): 0%
- Percent Inhibition of Plaque Numbers (Compared to Virus Controls) ([3]; 0.1 μg/ml, Example 2): 0%
- Percent Inhibition of Plaque Numbers (Compared to Virus Controls) ([3]; 0.32 μg/ml, Example 2): 0%
- Percent Inhibition of Plaque Numbers (Compared to Virus Controls) ([3]; 1.0 μg/ml, Example 2): 100%
- Percent Inhibition of Plaque Numbers (Compared to Virus Controls) ([3]; 3.2 μg/ml, Example 2): toxic
- Percent Inhibition of Plaque Numbers (Compared to Virus Controls) [3, 5]: toxic
- Activity in initial screening against HCMV in vitro [3]: active
- Activity against HCMV [3, 6]: show activity; also recorded: good biological activity
- CD50 (MRC-5 cells; Example 2, cells exposed 6 or more days): 1.1 µg/mL
- CD50 (MRC-5 cells; [7]): 1.8 µg/mL
- CD50 (MRC-5 cells; [8]): 1.1 µg/mL
- CD50 (MRC-5 cells; [9]): 1.8 µg/mL

SMILES: Cc1cc(O)c2c(c1)C(=O)c1cc(O)cc(O)c1C2=O [Emodin, emodin]
- Activity against DHPG resistant HCMV strain [2]: retain essentially the same activity
- Percent Inhibition Compared to Controls [2]: toxic
- inhibition at 0.01 µg/mL [2]: 0%
- inhibition at 0.032 µg/mL [2]: 0%
- inhibition at 0.1 µg/mL [2]: 0%
- inhibition at 0.32 µg/mL [2]: 0%
- inhibition at 1 µg/mL [2]: 46%
- inhibition at 3.2 µg/mL [2]: 100%
- Number of Plaques [3, 10]: 79
- Number of Plaques [3, 11]: 72
- Number of Plaques [3, 12]: 78
- Number of Plaques [3, 13]: 22
- Number of Plaques [3, 14]: 0
- Number of Plaques [3, 15]: 0
- Percent Inhibition of Plaque Numbers (Compared to Virus Controls) [3, 5]: toxic
- inhibition at 0.0032 µg/mL ([3]; Example 1, DMSO stock): 0%
- inhibition at 0.01 µg/mL [3, 16]: 0%
- inhibition at 0.032 µg/mL [3, 16]: 0%
- inhibition at 0.1 µg/mL [3, 17]: 9%
- inhibition at 0.1 µg/mL [3, 16]: 0%
- inhibition at 0.32 µg/mL [3, 17]: 1%
- inhibition at 0.32 µg/mL [3, 16]: 0%
- inhibition at 1 µg/mL [3, 17]: 72%
- inhibition at 1 µg/mL [3, 16]: 39%
- inhibition at 3.2 µg/mL [3, 18]: 100%
- inhibition at 3.2 µg/mL ([3]; Human betaherpesvirus 5, AD169, MRC5, 3.2 μg/ml, Example 2, read-out: Percent Inhibition of Plaque Numbers (Compared to Virus Controls)): 100%
- inhibition at 10 µg/mL [3, 17]: 100%
- Activity against HCMV [3, 6]: show activity
- Activity against HCMV ([3]; statement in words on the plaque reduction results, listed as emodin): anti-HCMV activity
- CD50 (MRC-5 cells; human, 4 days): 3.4 µg/mL

SMILES: Cc1cc(O)c2c(=O)c3c(O)cc(O)c4c5c(O)cc(O)c6c(=O)c7c(O)cc(C)c8c1c2c(c34)c(c78)c65 [Hypericin, hypericin]
- inhibition at 10 µg/mL [2]: 98%
- inhibition at 0.01 µg/mL [2]: 0%
- inhibition at 0.032 µg/mL [2]: 0%
- inhibition at 0.1 µg/mL [2]: 0%
- inhibition at 0.32 µg/mL [2]: 18%
- inhibition at 1 µg/mL [2]: 52%
- inhibition at 3.2 µg/mL [2]: 93%
- % Reduction ([4]; 0.1 μg/ml): 0%
- Number of Plaques ([4]; 0.1 μg/ml): 19
- % Reduction ([4]; 0.32 μg/ml (row r14)): 0%
- Number of Plaques ([4]; 0.32 μg/ml (row r14)): 22
- % Reduction [4, 19]: 0%
- Number of Plaques [4, 19]: 25
- % Reduction ([4]; 1.0 μg/ml): 0%
- Number of Plaques ([4]; 1.0 μg/ml): 19
- % Reduction ([4]; 3.2 μg/ml): 0%
- Number of Plaques ([4]; 3.2 μg/ml): 15
- % Reduction ([4]; 10 μg/ml): 100%
- Number of Plaques ([4]; 10 μg/ml): 0
- Number of Plaques [3, 10]: 72
- Number of Plaques [3, 11]: 72
- Number of Plaques [3, 12]: 53
- Number of Plaques [3, 13]: 53
- Number of Plaques [3, 14]: 6
- Number of Plaques [3, 15]: 0
- inhibition at 0.0032 µg/mL ([3]; Example 1, DMSO stock): 9%
- inhibition at 0.01 µg/mL [3, 16]: 0%
- inhibition at 0.032 µg/mL [3, 16]: 0%
- inhibition at 0.1 µg/mL [3, 17]: 9%
- inhibition at 0.1 µg/mL [3, 16]: 0%
- inhibition at 0.32 µg/mL [3, 17]: 33%
- inhibition at 0.32 µg/mL [3, 16]: 0%
- inhibition at 1 µg/mL [3, 17]: 33%
- inhibition at 1 µg/mL [3, 16]: 63%
- inhibition at 3.2 µg/mL [3, 18]: 92%
- inhibition at 10 µg/mL [3, 17]: 100%
- Activity in initial screening against HCMV in vitro [3]: active
- CD50 (3T3 cells): >10 µg/mL
- CD50 (MRC-5 cells; Example 1, DMSO stock): ≈10 μg/ml
- CD50 (MRC-5 cells; [7]): ˜10 μg/ml

SMILES: O=C1c2ccc(O)c(O)c2C(=O)c2c(O)ccc(O)c21 [Quinalizarin, quinalizarin]
- inhibition at 10 µg/mL [2]: 98%
- inhibition at 0.01 µg/mL [2]: 21%
- inhibition at 0.032 µg/mL [2]: 44%
- inhibition at 0.1 µg/mL [2]: 20%
- inhibition at 0.32 µg/mL [2]: 0%
- inhibition at 1 µg/mL [2]: 42%
- inhibition at 3.2 µg/mL [2]: 88%
- Activity against HCMV [3]: definitely active; also recorded: show activity
- inhibition at 3.2 µg/mL [3, 20]: 100%
- CD50 (MRC-5 cells; human, 4 days): >10 µg/mL

SMILES: O=C(O)c1cc(O)c2c(c1)C(=O)c1cccc(O)c1C2=O [Rhein, rhein]
- inhibition at 10 µg/mL [2]: 100%
- inhibition at 0.01 µg/mL [2]: 0%
- inhibition at 0.032 µg/mL [2]: 0%
- inhibition at 0.1 µg/mL [2]: 38%
- inhibition at 0.32 µg/mL [2]: 0%
- inhibition at 1 µg/mL [2]: 49%
- inhibition at 3.2 µg/mL [2]: 100%
- inhibition at 3.2 µg/mL [3, 20]: 100%
- CD50 (MRC-5 cells; [7]): >10 µg/mL
- CD50 (MRC-5 cells; Example 5): 3.4 µg/mL
- CD50 (MRC-5 cells; Example 7): 2.9 µg/mL
- CD50 (MRC-5 cells; [8]): 3.4 µg/mL and 2.9 µg/mL
- CD50 (MRC-5 cells; [9]): >10 µg/mL

— patent US6686393B1, “Pharmaceutical compositions having antiviral activity against human cytomegalovirus” (Murdock International Corporation, priority 1990, dated 2004)
